Data from patent US7449617B2, “Plants with elevated levels of gallic acid/polyphenol oxidase and methods of generating such plants” (The Regents of the University of California, priority 2004, dated 2008).

Test system: buffered rumen fluid
Assay: In vitro gas production technique: incubation of alfalfa hays in buffered rumen fluid with added tannins, net ammonium-N in supernatant
Set-up: species or system cows
Conditions: for % Difference from control / Net ammonium-N in supernatant: 72 h; for Net ammonium-N in supernatant: 30 ml buffered rumen fluid, SD in parenthesis; for Effect on ammonia-N (in words): in vitro rumen fluid system, preliminary study
Experimental: A preliminary in vitro study was conducted to evaluate GA and TA (tannic acid) and to compare this with CT (a source of condensed tannins). The study utilized an in vitro gas production technique that has been established and validated at UC Davis. This system uses canulated cows as a rumen fluid donor. […] The reduction in protein degradation and ammonia nitrogen accumulation was dependant on type of tannins and levels used in each of the experiments. […] [table]

[1] = CUF101, tannin added at 2% DM, Experiment 1
[2] = CUF101, tannin added at 4% DM, Experiment 1
[3] = CUF101, tannin added at 5% DM, Experiment 2
[4] = CUF101, tannin added at 6% DM, Experiment 1
[5] = CUF101, tannin added at 10% DM, Experiment 2
[6] = CUF101, tannin added at 15% DM, Experiment 2
[7] = CUF101 alfalfa hay 200 mg, tannin added at 2% DM, Experiment 1
[8] = CUF101 alfalfa hay 200 mg, tannin added at 4% DM, Experiment 1
[9] = CUF101 alfalfa hay 200 mg, tannin added at 5% DM, Experiment 2
[10] = CUF101 alfalfa hay 200 mg, tannin added at 6% DM, Experiment 1
[11] = CUF101 alfalfa hay 200 mg, tannin added at 10% DM, Experiment 2
[12] = CUF101 alfalfa hay 200 mg, tannin added at 15% DM, Experiment 2
[13] = Sutter alfalfa hay 200 mg, tannin added at 2% DM, Experiment 1
[14] = Sutter alfalfa hay 200 mg, tannin added at 4% DM, Experiment 1
[15] = Sutter alfalfa hay 200 mg, tannin added at 5% DM, Experiment 2
[16] = Sutter alfalfa hay 200 mg, tannin added at 6% DM, Experiment 1
[17] = Sutter alfalfa hay 200 mg, tannin added at 10% DM, Experiment 2
[18] = Sutter alfalfa hay 200 mg, tannin added at 15% DM, Experiment 2
[19] = Sutter, tannin added at 2% DM, Experiment 1
[20] = Sutter, tannin added at 4% DM, Experiment 1
[21] = Sutter, tannin added at 5% DM, Experiment 2
[22] = Sutter, tannin added at 6% DM, Experiment 1
[23] = Sutter, tannin added at 10% DM, Experiment 2
[24] = Sutter, tannin added at 15% DM, Experiment 2

Compound | % Difference from control [1] | % Difference from control [2] | % Difference from control [3] | % Difference from control [4] | % Difference from control [5] [%] | % Difference from control [6] [%] | Net ammonium-N in supernatant [7] | Net ammonium-N in supernatant [8] | Net ammonium-N in supernatant [9] | Net ammonium-N in supernatant [10] | Net ammonium-N in supernatant [11] | Net ammonium-N in supernatant [12] | Net ammonium-N in supernatant [13] | Net ammonium-N in supernatant [14] | Net ammonium-N in supernatant [15] | Net ammonium-N in supernatant [16] | Net ammonium-N in supernatant [17] | Net ammonium-N in supernatant [18] | % Difference from control [19] | % Difference from control [20] [%] | further results
O=C(O)c1cc(O)c(O)c(O)c1 [GA, 3,4,5-trihydroxybenzoic acid] | +3.20% | +4.92% | +1.68% | +5.63% | −1.33 | −3.54 | 3.610 (0.338) mg | 3.670 (0.404) mg | 3.450 (0.240) mg | 3.695 (0.305) mg | 3.348 (0.254) mg | 3.273 (0.234) mg | 3.540 (0.432) mg | 3.608 (0.564) mg | 3.415 (0.191) mg | 3.575 (0.431) mg | 3.348 (0.206) mg | 3.298 (0.177) mg | +0.48% | −2.41 | % Difference from control [21]: +0.21%; % Difference from control [22]: +1.48%; % Difference from control [23]: −1.76%; % Difference from control [24]: −3.23%; Effect on ammonia-N (in words): did not show any affect
O=C(OC[C@H]1O[C@@H](OC(=O)c2cc(O)c(O)c(OC(=O)c3cc(O)c(O)c(O)c3)c2)[C@H](OC(=O)c2cc(O)c(O)c(OC(=O)c3cc(O)c(O)c(O)c3)c2)[C@@H](OC(=O)c2cc(O)c(O)c(OC(=O)c3cc(O)c(O)c(O)c3)c2)[C@@H]1OC(=O)c1cc(O)c(O)c(OC(=O)c2cc(O)c(O)c(O)c2)c1)c1cc(O)c(O)c(OC(=O)c2cc(O)c(O)c(O)c2)c1 [TA, tannic acid] | −0.66% | −4.00% | −16.23% | −8.52% | −26.23 | −48.57 | 3.475 (0.269) mg | 3.358 (0.231) mg | 2.830 (0.435) mg | 3.200 (0.308) mg | 2.503 (0.177) mg | 1.745 (0.204) mg | 3.168 (0.737) mg | 3.250 (0.424) mg | 3.030 (0.167) mg | 2.998 (0.310) mg | 2.543 (0.208) mg | 1.888 (0.139) mg | −10.08% | −7.75 | % Difference from control [21]: −11.09%; % Difference from control [22]: −14.90%; % Difference from control [23]: −25.38%; % Difference from control [24]: −44.60%; Effect on ammonia-N (in words): effective in reducing ammonia-N
